Experimental data as given in patent US8946147B2 (priority 2010, dated 2015).
“And” between values parts separate entries of the source, which are not always exact repeats. Identical values can stand only once. One block for each compound: values may come before it. Positions of bridges follow the written chain, without caps; N, C: chain ends. Non-standard residues stand in square brackets, D forms with d. Residues, ends and D or L forms follow the SMILES beside them. Chains are numbered I, II in the order given. *: point of attachment. Phe(4-NH2) = Nc1ccc(C[C@H](N)C(=O)O)cc1; X1 = NOCC(=O)*

How the values were obtained:
human insulin receptor = target: T1, human insulin receptor (Homo sapiens, UniProt P06213); experiment: Insulin receptor binding assay (scintillation proximity competition); conditions: for % Activity of Insulin: Table 3A, in vitro binding
T1 construct: expressed in transfected cells; plasma membrane fragments
T1 sequence (P06213 28-758 limits assumed): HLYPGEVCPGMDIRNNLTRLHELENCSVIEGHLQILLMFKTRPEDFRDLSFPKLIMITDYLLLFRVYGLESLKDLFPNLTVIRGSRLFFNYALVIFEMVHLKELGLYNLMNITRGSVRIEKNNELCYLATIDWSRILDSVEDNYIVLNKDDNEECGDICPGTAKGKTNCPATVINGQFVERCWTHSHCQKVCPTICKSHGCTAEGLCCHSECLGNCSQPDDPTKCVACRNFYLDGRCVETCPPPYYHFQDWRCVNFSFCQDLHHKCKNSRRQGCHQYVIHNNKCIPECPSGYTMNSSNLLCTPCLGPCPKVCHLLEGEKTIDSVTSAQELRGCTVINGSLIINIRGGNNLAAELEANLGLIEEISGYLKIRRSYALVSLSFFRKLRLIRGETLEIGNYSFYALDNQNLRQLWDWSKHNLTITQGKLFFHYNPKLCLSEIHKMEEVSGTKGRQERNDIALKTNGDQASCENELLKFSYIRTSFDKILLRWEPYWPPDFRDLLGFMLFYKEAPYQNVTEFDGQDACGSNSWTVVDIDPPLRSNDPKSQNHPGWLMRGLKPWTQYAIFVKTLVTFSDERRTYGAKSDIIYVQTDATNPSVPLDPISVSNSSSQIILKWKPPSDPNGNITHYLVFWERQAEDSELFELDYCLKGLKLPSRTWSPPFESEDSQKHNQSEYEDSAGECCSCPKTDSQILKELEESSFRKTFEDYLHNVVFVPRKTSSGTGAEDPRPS
T1 sequence (P06213 763-1382 partner limits assumed): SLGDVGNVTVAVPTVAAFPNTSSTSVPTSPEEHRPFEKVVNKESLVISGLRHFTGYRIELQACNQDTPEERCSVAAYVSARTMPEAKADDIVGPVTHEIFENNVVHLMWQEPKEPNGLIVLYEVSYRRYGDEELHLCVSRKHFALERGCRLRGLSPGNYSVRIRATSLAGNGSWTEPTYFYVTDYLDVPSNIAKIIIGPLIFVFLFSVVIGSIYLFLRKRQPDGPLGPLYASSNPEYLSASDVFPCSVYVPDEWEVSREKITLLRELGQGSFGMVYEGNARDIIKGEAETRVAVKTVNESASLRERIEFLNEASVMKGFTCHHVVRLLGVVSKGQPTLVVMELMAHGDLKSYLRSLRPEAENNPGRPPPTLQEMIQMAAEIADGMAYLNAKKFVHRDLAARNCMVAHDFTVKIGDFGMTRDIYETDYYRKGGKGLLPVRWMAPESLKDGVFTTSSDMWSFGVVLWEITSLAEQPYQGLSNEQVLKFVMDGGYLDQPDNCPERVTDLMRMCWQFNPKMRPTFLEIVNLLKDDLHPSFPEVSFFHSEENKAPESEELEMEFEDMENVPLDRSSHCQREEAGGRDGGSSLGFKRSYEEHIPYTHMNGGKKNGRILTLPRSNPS

[1] = target: T2, insulin receptor (receptor transfected HEK293 cells) (Homo sapiens, UniProt P06213); experiment: Insulin receptor phosphorylation assay; format: cell-based; conditions: for % Activity of Insulin: Table 3B, in vitro phosphorylation
T2 construct: expressed in transfected cells; host or cells: HEK293
T2 sequence (P06213 28-758 limits assumed): as the sequence (P06213 28-758 limits assumed) above
T2 sequence (P06213 763-1382 partner limits assumed): as the sequence (P06213 763-1382 partner limits assumed) above

IGF-1 Receptor [2] = target: T3, IGF-1 Receptor (Homo sapiens, UniProt P08069); experiment: IGF-1 receptor phosphorylation assay; format: cell-based; design: expressed in transfected cells; host or cells: HEK293; conditions: Table 10
T3 sequence (P08069 31-736 limits assumed): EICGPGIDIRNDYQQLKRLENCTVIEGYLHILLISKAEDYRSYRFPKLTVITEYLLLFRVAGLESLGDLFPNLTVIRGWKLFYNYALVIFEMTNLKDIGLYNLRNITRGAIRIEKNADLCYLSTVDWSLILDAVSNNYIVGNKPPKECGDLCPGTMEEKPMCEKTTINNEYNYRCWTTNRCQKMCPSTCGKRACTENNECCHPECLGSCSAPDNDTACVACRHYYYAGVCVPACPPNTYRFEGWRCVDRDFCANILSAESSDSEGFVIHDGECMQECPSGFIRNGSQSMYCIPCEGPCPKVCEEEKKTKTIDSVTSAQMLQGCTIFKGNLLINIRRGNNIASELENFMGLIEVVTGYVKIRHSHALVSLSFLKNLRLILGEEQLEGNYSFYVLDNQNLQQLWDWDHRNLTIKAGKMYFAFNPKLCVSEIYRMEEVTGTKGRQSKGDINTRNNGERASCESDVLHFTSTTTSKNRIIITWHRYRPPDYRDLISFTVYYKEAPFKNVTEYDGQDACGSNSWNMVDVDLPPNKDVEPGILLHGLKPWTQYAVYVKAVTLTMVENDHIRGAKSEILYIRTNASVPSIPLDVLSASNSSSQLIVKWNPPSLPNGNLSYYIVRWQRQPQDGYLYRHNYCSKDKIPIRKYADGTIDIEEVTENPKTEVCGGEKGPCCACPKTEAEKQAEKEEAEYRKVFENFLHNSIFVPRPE
T3 sequence (P08069 741-1367 partner limits assumed): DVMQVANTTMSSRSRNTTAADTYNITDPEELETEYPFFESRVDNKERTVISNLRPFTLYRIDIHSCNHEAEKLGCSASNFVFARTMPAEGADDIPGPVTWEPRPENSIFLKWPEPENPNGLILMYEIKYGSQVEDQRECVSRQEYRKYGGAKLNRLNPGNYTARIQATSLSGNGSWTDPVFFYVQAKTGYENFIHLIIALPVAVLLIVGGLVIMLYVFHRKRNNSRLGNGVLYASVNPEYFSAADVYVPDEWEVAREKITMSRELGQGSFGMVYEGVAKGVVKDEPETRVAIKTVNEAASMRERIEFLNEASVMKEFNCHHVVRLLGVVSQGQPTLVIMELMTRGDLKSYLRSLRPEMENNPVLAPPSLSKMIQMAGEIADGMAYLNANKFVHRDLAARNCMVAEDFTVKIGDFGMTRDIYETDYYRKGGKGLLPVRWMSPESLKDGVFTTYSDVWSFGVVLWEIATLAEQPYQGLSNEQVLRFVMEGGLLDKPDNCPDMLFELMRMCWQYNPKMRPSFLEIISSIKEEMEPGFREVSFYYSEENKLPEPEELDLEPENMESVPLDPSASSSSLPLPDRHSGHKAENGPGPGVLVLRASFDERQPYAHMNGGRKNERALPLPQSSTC

IGF-1 Receptor [3] = target: T3, IGF-1 Receptor; experiment: IGF-1 receptor binding assay (scintillation proximity competition); design: expressed in transfected cells; plasma membrane fragments; conditions: Table 9
C57/Blk mice = experiment: Comparative insulin tolerance test (blood glucose lowering) in mice; format: in vivo; conditions: C57 black mice
Text: […]. […] […]. These in vivo results are consistent with the in vitro analysis.
[…]. […] […].

[4] = target: insulin A subtype receptor (IR-A) (Homo sapiens, UniProt P06213); experiment: Phosphorylation assay at insulin A subtype receptor; conditions: Table 14
Chain of insulin A subtype receptor (IR-A) (P06213 28-1370 isoform P06213-2 limits assumed): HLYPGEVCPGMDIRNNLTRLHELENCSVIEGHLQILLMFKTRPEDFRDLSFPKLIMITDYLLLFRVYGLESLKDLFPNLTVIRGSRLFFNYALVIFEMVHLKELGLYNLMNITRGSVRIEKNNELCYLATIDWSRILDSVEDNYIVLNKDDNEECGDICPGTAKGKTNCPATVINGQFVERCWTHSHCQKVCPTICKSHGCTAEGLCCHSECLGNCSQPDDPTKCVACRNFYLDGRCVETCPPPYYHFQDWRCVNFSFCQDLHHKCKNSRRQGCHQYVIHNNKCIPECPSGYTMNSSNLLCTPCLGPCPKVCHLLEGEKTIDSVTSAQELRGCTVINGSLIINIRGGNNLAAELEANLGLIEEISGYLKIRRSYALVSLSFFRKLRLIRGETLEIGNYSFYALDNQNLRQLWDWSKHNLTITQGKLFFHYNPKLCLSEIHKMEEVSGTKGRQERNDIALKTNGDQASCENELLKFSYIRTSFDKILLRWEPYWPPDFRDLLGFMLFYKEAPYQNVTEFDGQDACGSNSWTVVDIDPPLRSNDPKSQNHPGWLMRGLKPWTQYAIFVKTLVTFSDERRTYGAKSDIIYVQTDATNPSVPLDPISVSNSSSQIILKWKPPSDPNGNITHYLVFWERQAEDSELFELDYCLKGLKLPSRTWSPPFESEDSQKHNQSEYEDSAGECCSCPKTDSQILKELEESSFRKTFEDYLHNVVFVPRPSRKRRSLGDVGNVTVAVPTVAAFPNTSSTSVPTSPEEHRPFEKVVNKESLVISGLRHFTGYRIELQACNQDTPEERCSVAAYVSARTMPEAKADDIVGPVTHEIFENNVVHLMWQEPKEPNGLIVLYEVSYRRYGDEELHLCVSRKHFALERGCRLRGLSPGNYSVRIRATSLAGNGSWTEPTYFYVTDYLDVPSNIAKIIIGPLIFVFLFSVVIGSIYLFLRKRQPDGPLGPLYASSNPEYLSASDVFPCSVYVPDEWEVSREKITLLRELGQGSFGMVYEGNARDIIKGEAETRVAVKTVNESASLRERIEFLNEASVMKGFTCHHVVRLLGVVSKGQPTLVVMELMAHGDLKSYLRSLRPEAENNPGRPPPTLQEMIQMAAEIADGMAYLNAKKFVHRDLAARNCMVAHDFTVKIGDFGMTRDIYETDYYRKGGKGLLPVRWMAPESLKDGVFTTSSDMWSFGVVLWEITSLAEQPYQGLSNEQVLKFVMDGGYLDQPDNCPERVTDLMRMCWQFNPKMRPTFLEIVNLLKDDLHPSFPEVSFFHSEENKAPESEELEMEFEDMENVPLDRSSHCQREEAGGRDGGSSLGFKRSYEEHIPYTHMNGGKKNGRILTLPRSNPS
Chain of insulin A subtype receptor (IR-A) (P06213 763-1382 partner limits assumed): as the sequence (P06213 763-1382 partner limits assumed) above

[5] = target: insulin B subtype receptor (IR-B) (Homo sapiens, UniProt P06213); experiment: Phosphorylation assay at insulin B subtype receptor; conditions: Table 14
Chain of insulin B subtype receptor (IR-B) (P06213 28-758 limits assumed): as the sequence (P06213 28-758 limits assumed) above
Chain of insulin B subtype receptor (IR-B) (P06213 763-1382 partner limits assumed): as the sequence (P06213 763-1382 partner limits assumed) above

Compound: CC[C@H](C)[C@H](NC(=O)CN)C(=O)N[C@H](C(=O)N[C@@H](CC(=O)O)C(=O)N[C@@H](CCC(=O)O)C(=O)N[C@H]1CSSC[C@@H]2NC(=O)[C@H](CO)NC(=O)[C@H](C)NC(=O)[C@H](Cc3c[nH]cn3)NC(=O)[C@H](CSSC[C@H](NC(=O)[C@H](CC(C)C)NC(=O)[C@H](Cc3c[nH]cn3)NC(=O)[C@H](CCC(=O)O)NC(=O)[C@@H]3CCCN3C(=O)CN)C(=O)NCC(=O)N[C@@H](C)C(=O)N[C@@H](CC(=O)O)C(=O)N[C@@H](CC(C)C)C(=O)N[C@@H](C(C)C)C(=O)N[C@@H](CC(=O)O)C(=O)N[C@@H](C)C(=O)N[C@@H](CC(C)C)C(=O)N[C@@H](Cc3ccc(O)cc3)C(=O)N[C@@H](CC(C)C)C(=O)N[C@@H](C(C)C)C(=O)N[C@H](C(=O)NCC(=O)N[C@@H](CC(=O)O)C(=O)N[C@@H](C)C(=O)NCC(=O)N[C@@H](Cc3ccccc3)C(=O)N[C@@H](Cc3ccc(O)cc3)C(N)=O)CSSC[C@@H](C(=O)N[C@@H](CC(N)=O)C(=O)O)NC(=O)[C@H](Cc3ccc(O)cc3)NC(=O)[C@H](CC[S+](C)[O-])NC(=O)[C@H](CCC(=O)O)NC(=O)[C@H](CC(C)C)NC(=O)[C@H](CCCNC(=N)N)NC(=O)[C@H](CCCNC(=N)N)NC(=O)[C@H](CC(C)C)NC(=O)[C@H](CC(=O)O)NC2=O)NC1=O)C(C)C (stereo partly shown)
Insulin Receptor % insulin (in test) (human insulin receptor; Table 9): 400.7%

Ratio (human insulin receptor; Table 9, IGF-1 receptor IC50 / insulin receptor IC50): 80.6
Insulin Receptor % Insulin ([1]; Table 10, listed as IGF-1 A (H8 A9 N21) B (H5D10Y16L17) DPI A-COOH): 840% and 1080%
IGF-1 Receptor % IGF (IGF-1 Receptor [2]): 181.395%
IGF-1 Receptor % IGF-1 (in test) (IGF-1 Receptor [3]): 12.9%
Compound: CC[C@H](C)[C@H](NC(=O)CN)C(=O)N[C@H](C(=O)N[C@@H](CC(=O)O)C(=O)N[C@@H](CCC(=O)O)C(=O)N[C@H]1CSSC[C@@H]2NC(=O)[C@H](CO)NC(=O)[C@H](C)NC(=O)[C@H](Cc3c[nH]cn3)NC(=O)[C@H](CSSC[C@H](NC(=O)[C@H](CC(C)C)NC(=O)[C@H](Cc3c[nH]cn3)NC(=O)[C@H](CCC(=O)O)NC(=O)[C@@H]3CCCN3C(=O)CN)C(=O)NCC(=O)N[C@@H](C)C(=O)N[C@@H](CC(=O)O)C(=O)N[C@@H](CC(C)C)C(=O)N[C@@H](C(C)C)C(=O)N[C@@H](CC(=O)O)C(=O)N[C@@H](C)C(=O)N[C@@H](CC(C)C)C(=O)N[C@@H](Cc3ccc(O)cc3)C(=O)N[C@@H](CC(C)C)C(=O)N[C@@H](C(C)C)C(=O)N[C@H](C(=O)NCC(=O)N[C@@H](CC(=O)O)C(=O)N[C@@H](CCCNC(=N)N)C(=O)NCC(=O)N[C@@H](Cc3ccccc3)C(=O)N[C@@H](Cc3ccc(O)cc3)C(N)=O)CSSC[C@@H](C(=O)N[C@@H](CC(N)=O)C(=O)O)NC(=O)[C@H](Cc3ccc(O)cc3)NC(=O)[C@H](CCSC)NC(=O)[C@H](CCC(=O)O)NC(=O)[C@H](CC(C)C)NC(=O)[C@H](CCCNC(=N)N)NC(=O)[C@H](CCCNC(=N)N)NC(=O)[C@H](CC(C)C)NC(=O)[C@H](CC(=O)O)NC2=O)NC1=O)C(C)C

Compound: CC[C@H](C)[C@H](NC(=O)CN)C(=O)N[C@H](C(=O)N[C@@H](CC(=O)O)C(=O)N[C@@H](CCC(=O)O)C(=O)N[C@@H](C)C(=O)N[C@@H](C)C(=O)N[C@@H](Cc1ccccc1)C(=O)N[C@@H](CCCNC(=N)N)C(=O)N[C@@H](CO)C(=O)N[C@@H](C)C(=O)N[C@@H](CC(=O)O)C(=O)N[C@@H](CC(C)C)C(=O)N[C@@H](CCCNC(=N)N)C(=O)N[C@@H](CCCNC(=N)N)C(=O)N[C@@H](CC(C)C)C(=O)N[C@@H](CCC(=O)O)C(=O)N[C@@H](CCSC)C(=O)N[C@@H](Cc1ccc(NC(=O)[C@@H]2CCCN2C(=O)C(C)(C)N)cc1)C(=O)N[C@@H](C)C(=O)N[C@@H](C)C(N)=O)C(C)C [Aib Pro] (HELM PEPTIDE1{G.I.V.D.E.A.A.F.R.S.A.D.L.R.R.L.E.M.[O=C([C@H](Cc1ccc(N[*:3])cc1)N[*:1])[*:2]].A.A.[am]}|PEPTIDE2{[Aib].P}$PEPTIDE1,PEPTIDE2,19:R3-2:R2$$$V2.0)
Half Life, 20% Plasma/PBS: 2.1 h

Compound: CC[C@H](C)[C@H](NC(=O)CN)C(=O)N[C@H](C(=O)N[C@@H](CC(=O)O)C(=O)N[C@@H](CCC(=O)O)C(=O)N[C@@H](C)C(=O)N[C@@H](C)C(=O)N[C@@H](Cc1ccccc1)C(=O)N[C@@H](CCCNC(=N)N)C(=O)N[C@@H](CO)C(=O)N[C@@H](C)C(=O)N[C@@H](CC(=O)O)C(=O)N[C@@H](CC(C)C)C(=O)N[C@@H](CCCNC(=N)N)C(=O)N[C@@H](CCCNC(=N)N)C(=O)N[C@@H](CC(C)C)C(=O)N[C@@H](CCC(=O)O)C(=O)N[C@@H](CCSC)C(=O)N[C@@H](Cc1ccc(NC(=O)[C@H]2CCCN2C(=O)C(C)(C)N)cc1)C(=O)N[C@@H](C)C(=O)N[C@@H](C)C(N)=O)C(C)C [Aib dPro] (HELM PEPTIDE1{G.I.V.D.E.A.A.F.R.S.A.D.L.R.R.L.E.M.[O=C([C@H](Cc1ccc(N[*:3])cc1)N[*:1])[*:2]].A.A.[am]}|PEPTIDE2{[Aib].[dP]}$PEPTIDE1,PEPTIDE2,19:R3-2:R2$$$V2.0)
Half Life, 20% Plasma/PBS: 2.2 h

% of Insulin Activity (human insulin receptor; Table 8): 37.12%
Compound: CC[C@H](C)[C@H](NC(=O)CNC(=O)[C@@H]1CCCN1C(=O)[C@H](C)N)C(=O)N[C@H](C(=O)N[C@@H](CC(=O)O)C(=O)N[C@@H](CCC(=O)O)C(=O)N[C@H]1CSSC[C@@H]2NC(=O)[C@H](CO)NC(=O)[C@H](CCCNC(=N)N)NC(=O)[C@H](Cc3ccccc3)NC(=O)[C@H](CSSC[C@H](NC(=O)[C@H](CC(C)C)NC(=O)[C@@H](NC(=O)[C@H](CCC(=O)O)NC(=O)[C@@H]3CCCN3C(=O)CN)[C@@H](C)O)C(=O)NCC(=O)N[C@@H](C)C(=O)N[C@@H](CCC(=O)O)C(=O)N[C@@H](CC(C)C)C(=O)N[C@@H](C(C)C)C(=O)N[C@@H](CC(=O)O)C(=O)N[C@@H](C)C(=O)N[C@@H](CC(C)C)C(=O)N[C@@H](Cc3ccc(O)cc3)C(=O)N[C@@H](CC(C)C)C(=O)N[C@@H](C(C)C)C(=O)N[C@H](C(=O)NCC(=O)N[C@@H](CC(=O)O)C(=O)N[C@@H](CCCNC(=N)N)C(=O)NCC(=O)N[C@@H](Cc3ccccc3)C(=O)N[C@@H](Cc3ccc(O)cc3)C(=O)N[C@@H](Cc3ccccc3)C(=O)N[C@@H](CC(N)=O)C(=O)N[C@@H](CCCCN)C(=O)N3CCC[C@H]3C(=O)N[C@H](C(N)=O)[C@@H](C)O)CSSC[C@@H](C(=O)N[C@@H](C)C(N)=O)NC(=O)[C@H](Cc3ccc(O)cc3)NC(=O)[C@H](CCSC)NC(=O)[C@H](CCC(=O)O)NC(=O)[C@H](CC(C)C)NC(=O)[C@H](CCCNC(=N)N)NC(=O)[C@H](CCCNC(=N)N)NC(=O)[C@H](CC(C)C)NC(=O)[C@H](CC(=O)O)NC2=O)NC1=O)C(C)C [IGF1(YL)A-1, 0^B16, 17(AlaPro)]
insulin receptor binding (in words) (human insulin receptor; relative to native insulin): substantially reduced affinity for the insulin receptor

Compound: CC[C@H](C)[C@H](NC(=O)CN)C(=O)N[C@H](C(=O)N[C@@H](CC(=O)O)C(=O)N[C@@H](CCC(=O)O)C(=O)N[C@@H](C)C(=O)N[C@@H](C)C(=O)N[C@@H](Cc1ccccc1)C(=O)N[C@@H](CCCNC(=N)N)C(=O)N[C@@H](CO)C(=O)N[C@@H](C)C(=O)N[C@@H](CC(=O)O)C(=O)N[C@@H](CC(C)C)C(=O)N[C@@H](CCCNC(=N)N)C(=O)N[C@@H](CCCNC(=N)N)C(=O)N[C@@H](CC(C)C)C(=O)N[C@@H](CCC(=O)O)C(=O)N[C@@H](CCSC)C(=O)N[C@@H](Cc1ccc(NC(=O)CN(C)C(=O)[C@@H](N)CCCCN)cc1)C(=O)N[C@@H](C)C(=O)N[C@@H](C)C(N)=O)C(C)C [K Sar] (HELM PEPTIDE1{G.I.V.D.E.A.A.F.R.S.A.D.L.R.R.L.E.M.[O=C([C@H](Cc1ccc(N[*:3])cc1)N[*:1])[*:2]].A.A.[am]}|PEPTIDE2{K.[Sar]}$PEPTIDE1,PEPTIDE2,19:R3-2:R2$$$V2.0)
Half Life, 20% Plasma/PBS: 5.9 h

% Activity of Insulin (human insulin receptor; incubated 0 hr in 20% plasma/PBS at 37° C.): 34.44%
% Activity of Insulin (human insulin receptor; incubated 9 hr in 20% plasma/PBS at 37° C.): 100.09%
% Activity of Insulin (human insulin receptor; incubated 95 hr in 20% plasma/PBS at 37° C.): 115.42%
% Activity of Insulin ([1]; incubated 1 hr in 20% plasma): 23.0%
% Activity of Insulin ([1]; incubated 3 hr in 20% plasma): 26.8%
% Activity of Insulin ([1]; incubated 6 hr in 20% plasma): 32.5%
% Activity of Insulin ([1]; incubated 9 hr in 20% plasma): 41.1%
% Activity of Insulin ([1]; incubated […] in 20% plasma): 43.2%
Compound: B^1(Y16,L17,Y25)29a: A^1(dLys(Ac),Sar-aF19) [MIU30]
blood glucose (differential AUC vs vehicle, 8 hr) (C57/Blk mice; 90 nmol/kg): little change in glucose
blood glucose (differential AUC vs vehicle, 8 hr) (C57/Blk mice; 270 nmol/kg): glucose lowering

% (of insulin) [4]: 81%
% (of insulin) [5]: 48%
Compound: I: X1-GPEHLCGAHLVDALYLVCGDRGFY-NH2 / II: H-GIVDECCFRSCDLRRLEN[Phe(4-NH2)]CN-OH (disulfide I:6-II:7, I:18-II:20, II:6-II:11) [Unpegylated pNH2F, B^1Aoa2(H5, H10,Y16,L17)25a: A^1(pNH2—F19, N18, N21]
